{"source": "patent US10907153B2", "about": "“Treatment of heart disease by inhibtion of the action of muscle A-kinase anchoring protein (mAKAP)” (priority 2017, dated 2021)", "key": {"[1]": {"test_system": "neonatal rat ventricular myocytes", "test": "Hypertrophy of cultured neonatal rat ventricular myocytes (cross-section area, ANF expression)", "format": "cell-based", "details": "for agonist-induced myocyte hypertrophy: pan-RSK inhibitors, neonatal myocytes", "description": "Neonatal rat myocytes isolation and culture: 1-3 day old Sprague-Dawley rats were decapitated and the excised hearts placed in 1×ADS Buffer (116 mmol/L NaCl, 20 mmol/L HEPES, 1 mmol/L NaH2PO4, 5.5 mmol/L glucose, 5.4 mmol/L KCl, 0.8 mmol/L MgSO4, pH 7.35). The atria were carefully removed and the blood washed away. The ventricles were minced and incubated with 15 mL 1×ADS Buffer containing 3.3 mg type II collagenase (Worthington, 230 U/mg) and 9 mg Pancreatin (Sigma) at 37° C. while shaking at 80 RPM. After 15 minutes, the dissociated cardiac myocytes were separated by centrifugation at 50×g for 1 minute, resuspended in 4 mL horse serum and incubated 37° C. with occasional agitation. The steps for enzymatic digestion and isolation of myocytes were repeated 10-12 times to maximize yield. The myocytes were pooled and spun down again at 50×g for 2 minutes and resuspended in Maintenance Medium (DMEM:M199, 4:1) supplemented with 10% horse serum and 5% fetal bovine serum. To remove any contaminating fibroblasts, the cells were pre-plated for 1 hour before plating on gelatin-coated tissue culture plasticware. This procedure yields >90% pure cardiac myocytes. After 1 day in culture, the media was changed to maintenance medium containing 0.1 mmol/L bromodeoxyuridine to suppress fibroblast growth.\nExperiments were initiated 1 day after myocyte isolation. Adenoviral infection was performed by addition of adenovirus (multiplicity of infection=5-50) to the media. Plasmids and siRNA oligonucleotides were transfected using Transfast (Promega) and Dharmafect (Thermofisher), respectively, as recommended by the manufacturers using cells cultured in maintenance medium supplemented with 4% horse serum. Starting the day after gene transduction, the cells were treated for as long as 2 days, as indicated for each experiment. […]\nMorphometry: Morphometric data was acquired using IPLab Software. […] For adult mouse cardiac myocytes, the maximum lengths perpendicular (width) or parallel (length) to the myofibrils were measured for >100 freshly dissociated myocytes per heart."}, "[2]": {"test_system": "Noonan syndrome mouse model", "details": "Wu 2011; cited from earlier work"}, "[3]": {"test_system": "NHE1", "details": "Cuello 2007; cited from earlier work"}, "[4]": {"test_system": "RSK", "test": "RSK activation in neonatal rat ventricular myocytes (pan-RSK S218 phospho-specific antibody)", "format": "cell-based", "details": "α-adrenergic stimulation, MEK1/2- and MEK5-dependent", "from_the_text": "RSK family members can be activated in most cell types by ERK, but not c-Jun N-terminal kinases or p38 (Anjum 2008). ERK phosphorylation is permissive for PDK1 phosphorylation of the RSK N-terminal kinase domain, such that PDK1 phosphorylation of RSK S^218 is indicative of full activation of the enzyme (FIG. 4A of U.S. Pat. No. 9,132,174). […] The α-adrenergic stimulation with phenylephrine (PE) induced RSK phosphorylation 3-fold by both MEK1/2-dependent (that activates ERK1/2) and MEK5-dependent (that activates ERK5) mechanisms (FIG. 22 of U.S. Pat. No. 9,132,174)."}, "[5]": {"test_system": "RSK3 and mAKAPβ", "test": "Co-immunoprecipitation of endogenous RSK3 with mAKAPβ in neonatal myocytes", "format": "cell-based, rat", "details": "expressed in neonatal myocytes", "description": "Immunoprecipitations: HEK293 and COS-7 cells were transfected with Lipofectamine 2000 (Invitrogen) or Polyethylenimine “Max” (Polysciences). Cells (including myocytes) were lysed in buffer (20 mmol/L HEPES, pH 7.4, 150 mmol/L NaCl, 5 mmol/L EDTA, 0.5% Triton, 50 mmol/L NaF, 1 mmol/L sodium orthovanadate, 1 mmol/L DTT, and protease inhibitors). After centrifugation at 10,000×g for 10 minutes at 4° C., the clarified extracts were used for immunoprecipitation using appropriate antibodies (10 μg purified antibody or 1-5 μL whole serum) and 20 μL protein G sepharose (Millipore, Fastflow) for 3 hours to overnight at 4° C. The beads were washed 3-5 times with lysis buffer, and the immunoprecipitated proteins were eluted with 1× Laemmli buffer for western blotting. Western blots were developed using horseradish peroxidase-conjugated donkey secondary antibodies, Supersignal West Chemiluminescent Substrates (Thermo Scientific) and X-ray film or a Fujifilm LAS-3000 imaging system.\nB. Transfected myocytes expressing GFP or GFP-RBD (green) were stained with α-actinin (blue) and ANF (red) antibodies. Bar=20 μm. C. Cross-section area of myocytes. n=5. D. Fraction of myocytes expressing ANF. n=3. * p-values comparing to GFP-expressing samples. † p-values comparing to no agonist control."}, "[6]": {"test_system": "wildtype mice", "test": "Transverse aortic constriction (2 week TAC) after AAV9 injection", "format": "in vivo, mouse", "details": "AAV9 injected into neonatal mice, 2 week TAC at 8 weeks of age", "from_the_text": "Transverse Aortic Constriction: All tools were sterilized with a Germinator 500 Dry Sterilizer and Betadine Solution (10% povidone-iodine topical solution). Anesthesia was induced with 5% isoflurane and maintained with 2% isoflurane and 100% oxygen at a flow rate of 1.5 L/min using a SurgiVet flow regulator via nose cone. Loss of consciousness was verified by toe pinch. Mouse fur over the left chest and sternum was removed with a calcium hydroxide lotion (e.g. Nair), and the surgical site was sterilized with betadine. The skin was incised exposing the pectoralis muscle and the second left intercostal space. […] The lobes of the thymus were retracted to reveal the transverse aortic arch as well as the right innominate and left common carotid arteries. […]\nEchocardiography: Mice minimally anesthetized with 1-2% isoflurane were studied using a Vevo 770®, High-Resolution Imaging System (VisualSonics). The pressure gradient following TAC was calculated from the pulse wave Doppler velocity at the point of ligation as follows: P=4v^2; P=the induced pressure gradient (in mmHg) and v=the velocity across the constriction (in m/s).^7\nAAV9 containing the indicated CIS plasmid encoding myc-GFP-mAKAP 1694-1833 were injected into neonatal wildtype mice. 2 week TAC was performed and analyzed as above at 8 weeks of age. […]"}}}
{"molecule": "CC(C)CCN1c2nc(Nc3cc(F)c(O)c(F)c3)ncc2N(C)C(=O)C1C", "note": "(centres unmarked) [BI-D1870]", "values": [{"measurement": "agonist-induced myocyte hypertrophy", "setting": "[1]", "value": "inhibited"}]}
{"molecule": "O=C(NOC[C@H](O)CO)c1ccc(F)c(F)c1Nc1ccc(I)cc1F", "note": "[PD0325901]", "values": [{"measurement": "progression of cardiac hypertrophy cardiomyopathy and other Noonan characteristics", "setting": "[2]", "value": "attenuated progression"}]}
{"molecule": "CC(=O)OC1C(C)OC(Oc2c(-c3ccc(O)cc3)oc3cc(O)cc(O)c3c2=O)C(O)C1OC(C)=O", "note": "(centres unmarked) [SL0101]", "values": [{"measurement": "agonist-induced myocyte hypertrophy", "setting": "[1]", "value": "inhibited"}]}
{"molecule": "Cc1ccc(-c2c(C(=O)CF)n(CCCO)c3ncnc(N)c23)cc1", "note": "[fmk]", "values": [{"measurement": "α-adrenergic-induced NHE1 phosphorylation", "setting": "[3]", "value": "blocked"}]}
{"molecule": "CNC[C@H](O)c1cccc(O)c1", "note": "[phenylephrine]", "values": [{"measurement": "RSK phosphorylation induced", "setting": "[4]", "value": 3, "unit": "fold"}]}
{"molecule": "green fluorescent protein—mAKAP RBD fusion protein: GFP fused to the mAKAP RSK3 binding domain (mAKAP residues 1694 to 1833), an anchoring disruptor (protein, left off: small tags and cut ends; large carriers) ELSLCSEDIVLHKNKIPESNASFRKRLNRSVADESDVNVSMIVNVSCTSACTDDEDDSDLLSSSTLTLTEEELCLKDEDDDSSIATDDEIYEESNLMSGLDYIKNELQTWIRPKLSLTREKKRSGVTDEIKVNKDGGGNE", "values": [{"measurement": "association of endogenous RSK3 and mAKAPβ", "setting": "[5]", "value": "competed the association"}, {"measurement": "PE-induced hypertrophy", "setting": "[1]; expressed in neonatal myocytes, phenylephrine", "value": "markedly inhibited"}]}
{"molecule": "myc-GFP-mAKAP 1694-1833: myc-GFP-tagged mAKAP 1694-1833 expressed in vivo from AAV9 (protein, left off: small tags and cut ends; large carriers, myc-GFP-tagged mAKAP 1694-1833 expressed in vivo from AAV9) ELSLCSEDIVLHKNKIPESNASFRKRLNRSVADESDVNVSMIVNVSCTSACTDDEDDSDLLSSSTLTLTEEELCLKDEDDDSSIATDDEIYEESNLMSGLDYIKNELQTWIRPKLSLTREKKRSGVTDEIKVNKDGGGNE", "values": [{"measurement": "concentric hypertrophy in vivo in the adult heart", "setting": "[6]", "value": "inhibited concentric hypertrophy"}]}
